The target of assay [1] is T1, human sodium glucose cotransporter 2 (Homo sapiens, UniProt P31639).
T1 construct: expressed in transfected cells; host or cells: CHO-K1 (ATCC CCL-61) or HEK293 (ATCC CRL-1573), stably transfected with pZeoSV
T1 sequence (P31639 1-672): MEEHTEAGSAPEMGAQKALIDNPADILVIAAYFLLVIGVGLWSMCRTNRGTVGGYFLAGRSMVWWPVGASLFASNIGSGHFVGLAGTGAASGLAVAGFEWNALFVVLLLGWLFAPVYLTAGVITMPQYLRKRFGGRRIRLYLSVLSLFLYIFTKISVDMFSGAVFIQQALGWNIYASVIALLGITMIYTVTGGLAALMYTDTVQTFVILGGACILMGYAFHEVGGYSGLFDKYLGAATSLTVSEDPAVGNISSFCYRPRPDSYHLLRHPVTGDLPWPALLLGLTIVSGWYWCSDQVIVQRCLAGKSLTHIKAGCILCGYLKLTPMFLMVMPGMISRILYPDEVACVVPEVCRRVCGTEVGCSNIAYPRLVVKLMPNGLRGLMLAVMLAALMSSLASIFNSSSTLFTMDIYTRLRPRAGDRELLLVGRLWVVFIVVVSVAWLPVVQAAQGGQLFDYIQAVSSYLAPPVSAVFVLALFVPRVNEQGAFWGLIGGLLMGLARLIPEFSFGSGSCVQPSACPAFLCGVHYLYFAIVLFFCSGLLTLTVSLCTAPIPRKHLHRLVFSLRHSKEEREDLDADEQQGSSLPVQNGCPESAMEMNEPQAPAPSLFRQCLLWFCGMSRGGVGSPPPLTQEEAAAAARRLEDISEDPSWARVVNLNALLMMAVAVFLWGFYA
Kind of assay: SGLT2 assay: 14C-AMG uptake in CHO-hSGLT2 or HEK-hSGLT2 cells. Format: cell-based. The following applies: n = 1-4. How it is done: These cell lines transport ^14C-labeled alpha-methyl-glucopyranoside (^14C-AMG, Amersham) into the interior of the cell in sodium-dependent manner.
The SGLT-2 assay is carried out as follows: CHO-hSGLT2 cells are cultivated in Ham's F12 Medium (BioWhittaker) with 10% fetal calf serum and 250 μg/mL zeocin (Invitrogen), and HEK293-hSGLT2 cells are cultivated in DMEM medium with 10% fetal calf serum and 250 μg/mL zeocin (Invitrogen). The cells are detached from the culture flasks by washing twice with PBS and subsequently treating with trypsin/EDTA. After the addition of cell culture medium the cells are centrifuged, resuspended in culture medium and counted in a Casy cell counter. Then 40,000 cells per well are seeded into a white, 96-well plate coated with poly-D-lysine and incubated overnight at 37° C., 5% CO2. The cells are washed twice with 250 μl of assay buffer (Hanks Balanced Salt Solution, 137 mM NaCl, 5.4 mM KCl, 2.8 mM CaCl2, 1.2 mM MgSO4 and 10 mM HEPES (pH 7.4), 50 μg/mL of gentamycin). 250 μl of assay buffer and 5 μl of test compound are then added to each well and the plate is incubated for a further 15 minutes in the incubator. 5 μl of 10% DMSO are used as the negative control. The reaction is started by adding 5 μl of 14 C-AMG (0.05 μCi) to each well. After 2 hours' incubation at 37° C., 5% CO2, the cells are washed again with 250 μl of PBS ([…]) and then lysed by the addition of 25 μl of 0.1 N NaOH (5 min. at 37° C.). 200 μl of MicroScint20 (Packard) are added to each well and incubation is continued for a further 20 min at 37° C. After this incubation the radioactivity of the 14 C-AMG absorbed is measured in a Topcount (Packard) using a 14 C scintillation program.

The target of assay [2] is T2, human SGLT1 (Homo sapiens, UniProt P13866).
T2 construct: expressed in transfected cells; host or cells: CHO-K1 or HEK293
T2 sequence (P13866 1-664): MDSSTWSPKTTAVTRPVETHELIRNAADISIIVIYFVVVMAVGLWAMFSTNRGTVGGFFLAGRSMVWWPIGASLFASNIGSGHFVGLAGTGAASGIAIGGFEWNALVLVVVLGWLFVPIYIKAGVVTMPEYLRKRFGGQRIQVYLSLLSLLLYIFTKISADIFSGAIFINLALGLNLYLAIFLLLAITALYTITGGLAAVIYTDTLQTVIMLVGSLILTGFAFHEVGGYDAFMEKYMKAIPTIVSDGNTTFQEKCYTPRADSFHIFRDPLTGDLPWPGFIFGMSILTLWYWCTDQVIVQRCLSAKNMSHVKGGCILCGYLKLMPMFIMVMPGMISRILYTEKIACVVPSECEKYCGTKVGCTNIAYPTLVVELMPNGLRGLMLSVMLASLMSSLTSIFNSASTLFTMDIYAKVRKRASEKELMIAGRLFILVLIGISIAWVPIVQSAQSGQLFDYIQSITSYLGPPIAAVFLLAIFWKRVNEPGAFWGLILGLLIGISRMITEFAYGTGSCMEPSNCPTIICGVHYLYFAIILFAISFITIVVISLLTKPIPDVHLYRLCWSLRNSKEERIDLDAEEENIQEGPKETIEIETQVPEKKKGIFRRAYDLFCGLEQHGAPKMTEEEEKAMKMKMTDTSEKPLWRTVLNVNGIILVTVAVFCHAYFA
Kind of assay: SGLT1 assay: 14C-AMG uptake in CHO-K1 or HEK293 cells expressing hSGLT1. Type of assay: cell-based. The following applies: n = 1-4. The procedure:
To determine human SGLT1 inhibitory activity, an analogous test was set up in which the cDNA for hSGLTI (Genbank Ace. No. NM000343) instead of hSGLT2 cDNA is expressed in CHO-K1 or HEK293 cells. The uptake assay buffer in the case of the hSGLT1 assay contains 10 mM HEPES, 5 mM Tris, 140 mM NaCl, 2 mM KCl, 1 mM CaCl2, and 1 mM MgCl2, pH 7.4 containing 0.5 mM of α-methyl-D-glucopyranoside (AMG), 10 μM of [^14C]-α-methyl-D-glucopyranoside and different inhibitor concentrations.

Consider `CCOc1ccc(Cc2cc([C@@H]3O[C@H](CNc4cccc(NC(C)=O)c4)[C@@H](O)[C@H](O)[C@H]3O)ccc2Cl)cc1` [Example 34, N-[3-({(2R,3S,4R,5R,6S)-6-[4-Chloro-3-(4-ethoxy-benzyl)-phenyl]-3,4,5-trihydroxy-tetrahydro-pyran-2-ylmethyl}-amino)-phenyl]-acetamide], for which the half-inhibitory concentration (IC50) (in general, the concentration needed to halve the response being measured) amounted to 23 nM in assay [1] and 1500 nM in assay [2].

Consider `CCOc1ccc(Cc2cc([C@@H]3O[C@H](Cn4nncc4CO)[C@@H](O)[C@H](O)[C@H]3O)ccc2Cl)cc1` [Example 9, (2S, 3R, 4R, 5S, 6R)-2-[4-Chloro-3-(4-ethoxy-benzyl)-phenyl]-6-(5-hydroxymethyl-[1,2,3]triazol-1-ylmethyl)-tetrahydro-pyran-3,4,5-triol], for which the IC50 is 94 nM in assay [1] and above 10000 nM in assay [2]. As to `CCOc1ccc(Cc2cc([C@@H]3O[C@H](Cn4cc(CO)nn4)[C@@H](O)[C@H](O)[C@H]3O)ccc2Cl)cc1` [Example 10, (2S, 3R, 4R, 5S, 6R)-2-[4-Chloro-3-(4-ethoxy-benzyl)-phenyl]-6-(4-hydroxymethyl-[1,2,3]triazol-1-ylmethyl)-tetrahydro-pyran-3,4,5-triol], the IC50 in assay [1] amounted to 50 nM; in assay [2], 32000 nM. In assay [1], `CCOc1ccc(Cc2cc([C@@H]3O[C@H](Cn4cc(C(N)=O)nn4)[C@@H](O)[C@H](O)[C@H]3O)ccc2Cl)cc1` [Example 12, 1-{(2R,3S,4R,5R,6S)-6-[4-Chloro-3-(4-ethoxy-benzyl)-phenyl]-3,4,5-trihydroxy-tetrahydro-pyran-2-ylmethyl}-1H-[1,2,3]triazole-4-carboxylic acid amide] gave an IC50 of 81 nM. In the case of `CCOc1ccc(Cc2cc([C@@H]3O[C@H](CN(C)c4cccc(C(=O)N5CCCC5)c4)[C@@H](O)[C@H](O)[C@H]3O)ccc2Cl)cc1` [Example 37, [3-({(2R,3S,4R,5R,6S)-6-[4-Chloro-3-(4-ethoxy-benzyl)-phenyl]-3,4,5-trihydroxy-tetrahydro-pyran-2-ylmethyl}-methyl-amino)-phenyl]-pyrrolidin-1-yl-methanone], the half-maximal inhibitory concentration (IC50) was 10 nM in assay [1] and 280 nM in assay [2].
